Test results from patent publication US20240415791A1, “Therapeutic methods and compositions for treating cancer using devimistat and a fatty acid oxidation inhibitor, a tyrosine kinase inhibitor, a glutaminase inhibitor, and/or a glycolysis inhibitor” (Cornerstone Pharmaceuticals, Inc., priority 2021, published 2024).

System: AsPC1 cells
Test: Glycogen content in AsPC1 cells
Assay type: cell-based, human
Settings: AsPC1, CBS2, 3 hours
Description: Glycogen was quantified using the Glycogen Assay Kit II (colorimetric) from AbCam (ab169558) according to manufacturer's instructions. Briefly, approximately 2×10^6 cells were washed with ice-cold PBS and collected via scraping in 300 μL ice-cold ddH2O. Cells were immediately sonicated on ice for 5× […] pulses with a probe sonicator (Misonix Inc, model XL2000), then heated to 80° C. for 10 min. Samples were stored O/N at −20° C., then thawed, centrifuged at 12,000×g for 10 min and the supernatants collected for glycogen hydrolysis and quantification according to manufacturer's instructions.
C. […] Cells were treated in CBS2 for 3 hours with 30 μM devimistat or mock treated (FIG. 2C, left), or treated for 3 hours with the indicated devimistat doses (FIG. 2C, right).
D. Effects of anti-metabolism agents on glycogen consumption in PANC1 and AsPC1 cells. […] Glycogen content was measured in cell lysates (see Methods, above) and the results are presented in the left and middle graphs in FIG. 3D (note the different vertical scales for PANC1 and AsPC1 plots).

Compound: O=C(O)CCCCC(CCSCc1ccccc1)SCc1ccccc1 (stereo not shown) [devimistat, 6,8-bis(benzylsulfanyl)octanoic acid]
- glycogen consumption: accelerated
